Experimental findings from patent US7407934B2, “Methods for regulating postprandial blood glucose” (Amylin Pharmaceuticals, Inc., priority 1993, dated 2008) are described below.

Data set [1] is described as follows: Oral glucose tolerance test in dogs during amylin infusion (Example 1). It is filed as in vivo, dog. The procedure: Mongrel dogs (9 males, 12-17 kg wt. range) were used for this study. All animals were fasted overnight prior to each study. Each animal served as its own control for all protocols. Animals were equilibrated for 30-60 minutes prior to the start of each protocol.
25% glucose (1 gm/kg) was administered by mouth at t=0 minutes. […] Samples for insulin, glucose and lactate were obtained at 15 minutes intervals from t=−45 to t=180 minutes.

A short description of data set [2]: Uptake of labelled oral glucose load in corpulent LA/N rats (Example 6). It is filed as in vivo, rat. The method, then: Uptake of an ingested glucose load was measured in 11 conscious 24-hr fasted corpulent (500-600 g) LA/N rats on 2 occasions, 14 days apart.
Data set [3] can be described thus: Plasma glucose after Sustacal meal or IV glucose load during AC-0137 infusion (Example 3). It is filed as in vivo, human. An excerpt: Twenty-seven subjects with insulin-dependent diabetes mellitus were allocated into a combination of two dose level groups and two types of tolerance tests.
Subjects remained in the clinic for three days. On the first day of confinement, the subjects were acclimatized to the clinic. […] In addition, subjects received either a Sustacal® meal or iv glucose tolerance test, as determined by the group assignment.
During the first day, the subject's usual insulin and caloric intake was stabilized and each subject then followed this insulin and dietary regimen throughout confinement in the clinic.
at approximately, 0700 h (T=0), the continuous infusion of study medication was initiated. At T=30 minutes, the subjects administered their usual AM dose of insulin. […] The type of tolerance test was determined according to the randomization schedule. […] Study drug administration was discontinued at t=300 minutes.
On the morning of the third day, iv lines were again placed in a similar manner as on Day 2. Subjects administered their usual pre-breakfast dose of insulin as on Day 2. […] An identical standardized Sustacal® meal tolerance or iv glucose load as they received on Day 2 was again administered. At the end of the sampling period the iv lines were withdrawn.

Details of data set [4]: species or system human. The following applies: in vivo, iv. An excerpt: (§1) Subjects in each dose group underwent a two period crossover to examine intravenous (IV) bolus versus IV infusion of drug. Each period consisted of a three-day confinement to the study unit. On each occasion, the initial day of confinement was allowed for acclimatization to the study unit. The second and third days constituted an imbedded crossover of placebo versus active medication. […] An imbedded cross-over design for the administration of drug and placebo on Days 2 and 3 of this admission was employed in a manner similar to that used during the first admission. The six subjects assigned to the placebo group received placebo on each of the study days. On study days, intravenous catheters were inserted at least 30 minutes prior to the start of the study. 15 minutes before dosing, the subjects took their usual insulin dose via subcutaneous injection. […] The infusion rate was designed to administer the assigned amount of drug over the two hour period. Thirty minutes later, the subjects ingested their normal breakfasts. Blood samples were taken between −30 and 300 minutes for the measurement of plasma.

Data set [5] can be described thus: 14-day study, Sustacal meal tolerance test glucose (Example 4). The following applies: 14 days. It is filed as in vivo, human. The method, then:
72 subjects with insulin-dependent diabetes mellitus participated in a 14-day clinical trial. Each subject was randomly assigned to one of four treatment groups, receiving placebo, 30, 100 or 300 μg tripro-amylin by subcutaneous injection three times a day for 14 days. The subjects also remained on their usual insulin regimen throughout the study. On days 1 (baseline), 7 and 14, standardized meal tolerance tests were performed.
For the standardized meal tolerance tests, subjects were given a Sustacal® liquid meal (360 ml containing 360 calories) at 0800 h. Subjects abstained from food or drink (except for water) from 2200 h the night before. […] For a baseline test, on day 1, tripro-amylin (or placebo) was not administered until after completion of the test. On day 7 and 14, tripro-amylin (or placebo) was administered in a separate injection at the same time as the usual morning insulin dose. Samples for determination of serum glucose levels were drawn at −30, 0, 30, 60, 120 and 180 minutes relative to the start of the challenge. Time zero was considered to be the time when the subject began to drink the Sustacal® meal.

Data set [6] can be described thus: Post-prandial plasma glucose after IV bolus or IV infusion in insulin-dependent diabetic subjects (Example 2). It is filed as in vivo, human.
From the text: as §1

For “acetyl-^11,18Arg, ^30Arg, ^32Tyr-^9-32calcitonin (salmon) [AC-0253]”, the “Changes in plasma glucose, antagonist alone” value in data set [1] (AC-0253 alone) is reported as “no effect”. Moreover, the “Reversal of amylin-induced changes in plasma glucose” value in data set [1] (AC-0253 up to 1500 pmol/kg/min with amylin 50 pmol/kg/min) is “does not completely reverse the effects of amylin”. The “Effects on plasma lactate” value in data set [1] (oral glucose load) is on record as “unremarkable”.
For the compound “ac-^10N^32Y8-32-salmon calcitonin [AC-0187]”, the “Acceleration of appearance of glucose-derived tritium in plasma” value is recorded as 48% in data set [2] (3 μg s.c. 3 min before gavage, 15 minutes post-gavage (P<0.02)) and 45% in data set [2] (3 μg s.c., 30 minutes post-gavage (P<0.001)). In addition, the Plasma glucose in data set [2] (15 minutes after gavage with 0.5 g glucose, rise from 5.89±0.17) was determined as 8.33 ± 0.28 mM; in data set [2] (60 minutes after glucose gavage), 6.89 ± 0.28 mM.
For `CC[C@H](C)[C@H](NC(=O)[C@@H]1CCCN1C(=O)CNC(=O)[C@H](Cc1ccccc1)NC(=O)[C@H](CC(N)=O)NC(=O)[C@H](CC(N)=O)NC(=O)[C@H](CO)NC(=O)[C@H](CO)NC(=O)[C@H](Cc1c[nH]cn1)NC(=O)[C@@H](NC(=O)[C@H](CC(C)C)NC(=O)[C@H](Cc1ccccc1)NC(=O)[C@H](CC(N)=O)NC(=O)[C@H](C)NC(=O)[C@H](CC(C)C)NC(=O)[C@H](CCCNC(=N)N)NC(=O)[C@H](CCC(N)=O)NC(=O)[C@@H](NC(=O)[C@H](C)NC(=O)[C@@H]1CSSC[C@H](NC(=O)[C@@H](N)CCCCN)C(=O)N[C@@H](CC(N)=O)C(=O)N[C@@H]([C@@H](C)O)C(=O)N[C@@H](C)C(=O)N[C@@H]([C@@H](C)O)C(=O)N1)[C@@H](C)O)C(C)C)C(=O)N[C@@H](CC(C)C)C(=O)N1CCC[C@H]1C(=O)N1CCC[C@H]1C(=O)N[C@H](C(=O)N[C@@H](CC(N)=O)C(=O)N[C@H](C(=O)NCC(=O)N[C@@H](CO)C(=O)N[C@@H](CC(N)=O)C(=O)N[C@H](C(=O)N[C@@H](Cc1ccc(O)cc1)C(N)=O)[C@@H](C)O)C(C)C)[C@@H](C)O` [^25,28,29Pro-h-Amylin], the “Plasma glucose levels vs placebo” value is “not significantly different from placebo-treated subjects” in data set [3] (IV glucose load 300 mg/kg, 50 μg/hr IV infusion) and “reduced” in data set [3] (Sustacal meal, 25 μg/hr or 50 μg/hr IV infusion). Moreover, in data set [4], the “Disappearance of drug from plasma compartment” value is “apparent first-order kinetics”. Besides, the “Post-meal glucose: Mean of changes in AUC” value was −6,645 mb/dl * min in data set [5] (30 micrograms s.c. 3 times daily), −6,412 mb/dl * min in data set [5] (100 micrograms s.c. 3 times daily) and −7,316 mb/dl * min in data set [5] (300 micrograms s.c. 3 times daily). The Post-prandial glucose levels result in data set [6] (IV bolus 30 μg) was “no apparent change in glucose levels”. Moreover, the “Post-prandial rise in glucose” value in data set [6] (IV bolus 100 μg) was “clearly delayed and less pronounced”; in data set [6] (IV bolus 300 μg) it was “essentially eliminated”; in data set [6] (IV infusion 15 μg/hr) it was “highly suggestive of an effect”; in data set [6] (IV infusion 50 and 150 μg/hr), “striking”. Moreover, the Post-prandial hyperglycemia entry in data set [6] (continuous 2-hour IV infusion, 15-150 μg/hr) is recorded as “dose-dependent reduction in post-prandial hyperglycemia”.
